How the values were obtained:
Assay type in all cases: cell-based
[1] = biological target: hTRPV4 (full-length; hTRPV4WT) (Homo sapiens, UniProt Q9HBA0, L584M); assay: calcium flux
[2] = biological target: hTRPV4 (full-length; hTRPV4WT) (Homo sapiens, UniProt Q9HBA0, N474A); assay: calcium flux
[3] = biological target: hTRPV4 (full-length; hTRPV4WT) (Homo sapiens, UniProt Q9HBA0, R594A); assay: calcium flux
[4] = biological target: hTRPV4 (full-length; hTRPV4WT) (Homo sapiens, UniProt Q9HBA0, Y556A); assay: calcium flux
Chain of hTRPV4 (full-length; hTRPV4WT) (Homo sapiens, UniProt Q9HBA0, Y556A) (Q9HBA0 whole entry Y556A): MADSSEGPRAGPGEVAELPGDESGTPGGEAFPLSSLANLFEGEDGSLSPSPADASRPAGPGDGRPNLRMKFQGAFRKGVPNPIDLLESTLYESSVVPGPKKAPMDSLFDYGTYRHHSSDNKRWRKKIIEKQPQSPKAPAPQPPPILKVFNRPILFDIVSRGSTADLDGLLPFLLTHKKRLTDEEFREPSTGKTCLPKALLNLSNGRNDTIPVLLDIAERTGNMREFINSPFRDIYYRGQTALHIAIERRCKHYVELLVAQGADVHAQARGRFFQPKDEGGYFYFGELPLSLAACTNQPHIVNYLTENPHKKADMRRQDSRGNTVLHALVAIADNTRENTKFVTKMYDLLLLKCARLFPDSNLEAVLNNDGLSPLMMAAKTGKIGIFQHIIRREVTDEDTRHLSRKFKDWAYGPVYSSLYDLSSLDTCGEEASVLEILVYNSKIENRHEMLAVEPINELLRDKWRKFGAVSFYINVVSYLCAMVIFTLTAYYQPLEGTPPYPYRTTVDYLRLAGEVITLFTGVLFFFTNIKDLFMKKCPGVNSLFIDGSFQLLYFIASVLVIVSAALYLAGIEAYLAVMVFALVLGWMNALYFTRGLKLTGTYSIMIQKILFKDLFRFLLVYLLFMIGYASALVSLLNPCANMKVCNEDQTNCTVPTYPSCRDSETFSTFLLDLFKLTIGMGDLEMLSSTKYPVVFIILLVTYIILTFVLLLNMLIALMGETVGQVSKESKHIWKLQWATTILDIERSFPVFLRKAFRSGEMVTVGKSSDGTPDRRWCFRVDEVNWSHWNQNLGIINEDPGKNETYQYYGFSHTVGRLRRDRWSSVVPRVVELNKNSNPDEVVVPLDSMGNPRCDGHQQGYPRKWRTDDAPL

[5] = biological target: hTRPV4 (full-length; hTRPV4WT) (Homo sapiens, UniProt Q9HBA0); assay: calcium flux
Chain of hTRPV4 (full-length; hTRPV4WT) (Homo sapiens, UniProt Q9HBA0) (Q9HBA0 whole entry): as the sequence (Q9HBA0 whole entry Y556A) above, with A556Y counted along it

[6] = biological target: hTRPV4 (full-length; hTRPV4WT) (Homo sapiens, UniProt Q9HBA0, N474Q); assay: calcium flux
Chain of hTRPV4 (full-length; hTRPV4WT) (Homo sapiens, UniProt Q9HBA0, N474Q) (Q9HBA0 whole entry N474Q): as the sequence (Q9HBA0 whole entry Y556A) above, with N474Q, A556Y counted along it

[7] = biological target: hTRPV4 (full-length; hTRPV4WT) (Homo sapiens, UniProt Q9HBA0, K535A); assay: calcium flux
Chain of hTRPV4 (full-length; hTRPV4WT) (Homo sapiens, UniProt Q9HBA0, K535A) (Q9HBA0 whole entry K535A): as the sequence (Q9HBA0 whole entry Y556A) above, with K535A, A556Y counted along it

[8] = biological target: hTRPV4 (full-length; hTRPV4WT) (Homo sapiens, UniProt Q9HBA0, S548V); assay: calcium flux
Chain of hTRPV4 (full-length; hTRPV4WT) (Homo sapiens, UniProt Q9HBA0, S548V) (Q9HBA0 whole entry S548V): as the sequence (Q9HBA0 whole entry Y556A) above, with S548V, A556Y counted along it

[9] = biological target: hTRPV4 (full-length; hTRPV4WT) (Homo sapiens, UniProt Q9HBA0, F549A); assay: calcium flux
Chain of hTRPV4 (full-length; hTRPV4WT) (Homo sapiens, UniProt Q9HBA0, F549A) (Q9HBA0 whole entry F549A): as the sequence (Q9HBA0 whole entry Y556A) above, with F549A, A556Y counted along it

[10] = biological target: hTRPV4 (full-length; hTRPV4WT) (Homo sapiens, UniProt Q9HBA0, Q550A); assay: calcium flux
Chain of hTRPV4 (full-length; hTRPV4WT) (Homo sapiens, UniProt Q9HBA0, Q550A) (Q9HBA0 whole entry Q550A, the tested form may be a part): as the sequence (Q9HBA0 whole entry Y556A) above, with Q550A, A556Y counted along it

[11] = biological target: truncated hTRPV4 (cryo-EM construct, residues 148-787 N651D) (Homo sapiens, UniProt Q9HBA0, N651D); assay: two-electrode voltage clamp, Xenopus oocytes
Chain of truncated hTRPV4 (cryo-EM construct, residues 148-787 N651D) (Q9HBA0 148-787 N651D): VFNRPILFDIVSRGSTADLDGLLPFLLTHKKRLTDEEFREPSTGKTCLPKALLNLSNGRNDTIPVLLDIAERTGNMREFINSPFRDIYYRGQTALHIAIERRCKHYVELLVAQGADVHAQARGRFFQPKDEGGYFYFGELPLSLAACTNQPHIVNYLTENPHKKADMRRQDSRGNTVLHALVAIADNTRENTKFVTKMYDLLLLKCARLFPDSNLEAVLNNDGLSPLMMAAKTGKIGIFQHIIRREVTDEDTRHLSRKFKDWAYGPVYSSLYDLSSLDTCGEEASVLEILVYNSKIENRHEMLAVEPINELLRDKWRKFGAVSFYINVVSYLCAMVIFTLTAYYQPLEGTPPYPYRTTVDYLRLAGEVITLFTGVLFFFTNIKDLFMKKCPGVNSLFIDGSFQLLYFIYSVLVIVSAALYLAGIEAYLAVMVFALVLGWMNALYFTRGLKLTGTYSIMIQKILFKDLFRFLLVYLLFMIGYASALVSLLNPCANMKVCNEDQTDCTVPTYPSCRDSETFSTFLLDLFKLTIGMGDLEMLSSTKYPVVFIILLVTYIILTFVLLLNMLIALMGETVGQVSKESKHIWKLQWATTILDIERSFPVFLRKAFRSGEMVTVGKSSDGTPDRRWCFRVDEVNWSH

Chain of hTRPV4 (full-length; hTRPV4WT) (Homo sapiens, UniProt Q9HBA0, L584M) (Q9HBA0 whole entry L584M): as the sequence (Q9HBA0 whole entry Y556A) above, with A556Y, L584M counted along it
Chain of hTRPV4 (full-length; hTRPV4WT) (Homo sapiens, UniProt Q9HBA0, N474A) (Q9HBA0 whole entry N474A): as the sequence (Q9HBA0 whole entry Y556A) above, with N474A, A556Y counted along it
Chain of hTRPV4 (full-length; hTRPV4WT) (Homo sapiens, UniProt Q9HBA0, R594A) (Q9HBA0 whole entry R594A): as the sequence (Q9HBA0 whole entry Y556A) above, with A556Y, R594A counted along it

With CC(C)C[C@H](NC(=O)c1cc2ccccc2s1)C(=O)N1CCN(C(=O)[C@H](CO)NS(=O)(=O)c2ccc(Cl)cc2Cl)CC1 [GSK1016790A] the EC50 [1] was 4 ± 1.7 nM, the EC50 [2] was 540 ± 150 nM and the EC50 [3] was > 25000 nM. For the same molecule, the EC50 [4] was 9.6 ± 4.3 nM, the EC50 [5] was 1.21 ± 0.033 nM and the EC50 [6] was > 25000 nM. It also gave an EC50 [7] of 7.4 ± 2.9 nM, an EC50 [8] of 110 ± 18 nM and an EC50 [9] of 9.8 ± 4.1 nM. It also gave an EC50 [10] of 27 ± 13 nM and an EC50 [11] of 8430 nM.
